Assay results reported in PubChem BioAssay AID256 (DTP/NCI, 2004).
“And” between values parts separate entries of the source, which are not always exact repeats. Identical values can stand only once. Toxic doses and inconclusive results are not listed. Rule for the calls: active = survival T/C of 150% or more; inactive = T/C below 125% in these data.

Tested on: CD2F1 mice, L1210 leukemia ip, survival T/C
Test: NCI In Vivo Anticancer Drug Screen. Data for tumor model L1210 Leukemia (intraperitoneal) in CD2F1 (CDF1) mice
Details: higher = longer survival
Outline: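 Tumor-bearing mice (transplanted tumor) were split into treated and vehicle control groups, and the measured endpoint of each treated group was divided by that of its vehicle controls.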

[1] = endpoint: mean survival time, dose: 100.0 mg/kg/injection, schedule: Q04DX003 (ip), vehicle: saline with Tween-80
[2] = endpoint: mean survival time, dose: 200.0 mg/kg/injection, schedule: Q04DX003 (ip), vehicle: saline with Tween-80
[3] = endpoint: mean survival time, dose: 400.0 mg/kg/injection, schedule: Q04DX003 (ip), vehicle: saline with Tween-80
[4] = endpoint: mean survival time, dose: 400.0 mg/kg/injection, schedule: Q04DX003 (ip), vehicle: saline
[5] = endpoint: mean survival time, dose: 3.12 mg/kg/injection, schedule: Q01DX009 (ip), vehicle: saline with Tween-80
[6] = endpoint: mean survival time, dose: 6.25 mg/kg/injection, schedule: Q01DX009 (ip), vehicle: saline with Tween-80
[7] = endpoint: mean survival time, dose: 12.5 mg/kg/injection, schedule: Q01DX009 (ip), vehicle: saline with Tween-80
[8] = endpoint: mean survival time, dose: 25.0 mg/kg/injection, schedule: Q01DX009 (ip), vehicle: saline with Tween-80
[9] = endpoint: mean survival time, dose: 50.0 mg/kg/injection, schedule: Q01DX009 (ip), vehicle: saline with Tween-80
[10] = endpoint: mean survival time, dose: 6.25 mg/kg/injection, schedule: Q01DX009 (ip), vehicle: Klucel (hydroxypropylcellulose) (HPC)
[11] = endpoint: mean survival time, dose: 12.5 mg/kg/injection, schedule: Q01DX009 (ip), vehicle: Klucel (hydroxypropylcellulose) (HPC)
[12] = endpoint: mean survival time, dose: 100.0 mg/kg/injection, schedule: Q01DX009 (ip), vehicle: saline with Tween-80
[13] = endpoint: mean survival time, dose: 200.0 mg/kg/injection, schedule: Q01DX009 (ip), vehicle: saline with Tween-80
[14] = endpoint: mean survival time, dose: 400.0 mg/kg/injection, schedule: Q01DX009 (ip), vehicle: saline with Tween-80
[15] = endpoint: mean survival time, dose: 100.0 mg/kg/injection, schedule: Q01DX009 (ip), vehicle: saline
[16] = endpoint: mean survival time, dose: 200.0 mg/kg/injection, schedule: Q01DX009 (ip), vehicle: saline
[17] = endpoint: mean survival time, dose: 100.0 mg/kg/injection, schedule: Q04DX002 (ip), vehicle: saline with Tween-80
[18] = endpoint: mean survival time, dose: 200.0 mg/kg/injection, schedule: Q04DX002 (ip), vehicle: saline with Tween-80
[19] = endpoint: mean survival time, dose: 400.0 mg/kg/injection, schedule: Q04DX002 (ip), vehicle: saline with Tween-80

Measured: T/C

O=C(O)c1ccccc1NO
inactive: [1] 90 % of control | [2] 98 % of control | [3] 90 % of control

NCCNC(=O)c1ccccc1
inactive: endpoint: mean survival time, dose: 100.0 mg/kg/injection, schedule: Q04DX003 (ip), vehicle: saline 103 % of control | endpoint: mean survival time, dose: 200.0 mg/kg/injection, schedule: Q04DX003 (ip), vehicle: saline 101 % of control | [4] 100 % of control

CSc1ccc2c(c1)C(N1CCN(C)CC1)Cc1ccccc1S2 (centres undefined)
inactive: endpoint: mean survival time, dose: 1.56 mg/kg/injection, schedule: Q01DX009 (ip), vehicle: saline with Tween-80 112 % of control | [5] 118 % of control and 121 % of control | [6] 116 % of control and 122 % of control | [7] 115 % of control and 120 % of control | [8] 122 % of control and 108 % of control | [9] 114 % of control

COc1ccc2nc3cc(Cl)ccc3c(NCCNCCNCCNc3c4ccc(Cl)cc4nc4ccc(OC)cc34)c2c1
inactive: endpoint: mean survival time, dose: 3.12 mg/kg/injection, schedule: Q01DX009 (ip), vehicle: Klucel (hydroxypropylcellulose) (HPC) 113 % of control | [5] 96 % of control | [10] 116 % of control | [6] 96 % of control | [11] 101 % of control | [7] 102 % of control | [8] 103 % of control | endpoint: mean survival time, dose: 50.0 mg/kg/injection, schedule: Q01DX009 (ip), vehicle: Klucel (hydroxypropylcellulose) (HPC) 90 % of control | [9] 106 % of control | [12] 106 % of control

CCCCCCNC(=O)Nc1cccc(Cl)c1C
inactive: [12] 94 % of control | [1] 91 % of control | [13] 94 % of control | [14] 103 % of control | [3] 92 % of control

OCCOCCN1CCN(CCCN2c3ccccc3Sc3ccc(C(F)(F)F)cc32)CC1
inactive: endpoint: mean survival time, dose: 6.25 mg/kg/injection, schedule: Q01DX009 (ip), vehicle: saline 121 % of control

C=CCOC(OCC=C)C(OCC=C)OCC=C
inactive: [1] 102 % of control | [2] 96 % of control | [3] 96 % of control

CC1(COCCOCC2(C)CO2)CO1 (centres undefined)
inactive: [15] 111 % of control | [16] 114 % of control | endpoint: mean survival time, dose: 264.0 mg/kg/injection, schedule: Q04DX003 (ip), vehicle: saline 116 % of control | [4] 113 % of control | endpoint: mean survival time, dose: 600.0 mg/kg/injection, schedule: Q04DX003 (ip), vehicle: saline 121 % of control

c1coc(-c2nc3ccccc3s2)c1
inactive: endpoint: mean survival time, dose: 50.0 mg/kg/injection, schedule: Q01DX001 (ip), vehicle: Klucel (hydroxypropylcellulose) (HPC) 96 % of control | endpoint: mean survival time, dose: 100.0 mg/kg/injection, schedule: Q01DX001 (ip), vehicle: Klucel (hydroxypropylcellulose) (HPC) 93 % of control and 95 % of control | endpoint: mean survival time, dose: 200.0 mg/kg/injection, schedule: Q01DX001 (ip), vehicle: Klucel (hydroxypropylcellulose) (HPC) 120 % of control and 90 % of control

O=C(COc1ccc(Cl)cc1)C1CSc2ccc(Cl)cc21 (centres undefined)
inactive: [12] 88 % of control | [1] 95 % of control | [13] 91 % of control | [2] 92 % of control | [14] 89 % of control | [3] 88 % of control

CC(C)n1c(=S)[nH]c2ccccc2c1=O
inactive: [15] 97 % of control | [16] 100 % of control | endpoint: mean survival time, dose: 400.0 mg/kg/injection, schedule: Q01DX009 (ip), vehicle: saline 100 % of control

NNC(=O)c1ccc(-c2ccccc2)cc1
inactive: endpoint: mean survival time, dose: 1.56 mg/kg/injection, schedule: Q01DX009 (ip), vehicle: Klucel (hydroxypropylcellulose) (HPC) 100 % of control | endpoint: mean survival time, dose: 3.13 mg/kg/injection, schedule: Q01DX009 (ip), vehicle: Klucel (hydroxypropylcellulose) (HPC) 98 % of control | [10] 96 % of control | [11] 102 % of control | endpoint: mean survival time, dose: 25.0 mg/kg/injection, schedule: Q01DX009 (ip), vehicle: Klucel (hydroxypropylcellulose) (HPC) 94 % of control | endpoint: mean survival time, dose: 25.0 mg/kg/injection, schedule: Q01DX009 (ip), vehicle: water 108 % of control | endpoint: mean survival time, dose: 50.0 mg/kg/injection, schedule: Q01DX009 (ip), vehicle: water 102 % of control | endpoint: mean survival time, dose: 100.0 mg/kg/injection, schedule: Q01DX009 (ip), vehicle: water 100 % of control

Cn1c(=S)sc2ccccc21
inactive: endpoint: mean survival time, dose: 25.0 mg/kg/injection, schedule: Q04DX003 (ip), vehicle: Klucel (hydroxypropylcellulose) (HPC) 101 % of control | endpoint: mean survival time, dose: 50.0 mg/kg/injection, schedule: Q04DX003 (ip), vehicle: Klucel (hydroxypropylcellulose) (HPC) 109 % of control | [1] 110 % of control

Cc1noc2c1ncc[n+]2[O-]
inactive: endpoint: mean survival time, dose: 5.0 mg/kg/injection, schedule: Q04DX003 (ip), vehicle: saline 101 % of control | endpoint: mean survival time, dose: 10.0 mg/kg/injection, schedule: Q04DX003 (ip), vehicle: saline 101 % of control | endpoint: mean survival time, dose: 20.0 mg/kg/injection, schedule: Q04DX003 (ip), vehicle: saline 100 % of control

CC(C)CN(CC(C)C)C(=S)[S-].CC(C)CN(CC(C)C)C(=S)[S-].[Zn]
inactive: endpoint: mean survival time, dose: 75.0 mg/kg/injection, schedule: Q04DX003 (ip), vehicle: saline 91 % of control | endpoint: mean survival time, dose: 150.0 mg/kg/injection, schedule: Q04DX003 (ip), vehicle: saline 89 % of control | endpoint: mean survival time, dose: 300.0 mg/kg/injection, schedule: Q04DX003 (ip), vehicle: saline 95 % of control

O=c1c2c([nH]c3ccccc13)CSC2
inactive: [1] 92 % of control | [2] 87 % of control | [3] 94 % of control

CC(C)(C)CC(C)(C)c1ccc(O)c(Cl)c1
inactive: [1] 96 % of control | [2] 100 % of control | [3] 106 % of control

COc1ccc(NC(=O)C(c2ccccc2)c2ccccc2)cc1
inactive: [12] 105 % of control | [13] 102 % of control | [14] 92 % of control

Cc1cc(N(CCCOS(C)(=O)=O)CCCOS(C)(=O)=O)ccc1C=Nc1ccc2ccccc2c1
inactive: [8] 93 % of control | [9] 93 % of control | [12] 88 % of control

C1OCC2[CH2][Hg][S][Hg][CH2]C1O2
inactive: endpoint: mean survival time, dose: 4.0 mg/kg/injection, schedule: Q01DX015 (ip), vehicle: saline 109 % of control | endpoint: mean survival time, dose: 8.0 mg/kg/injection, schedule: Q01DX015 (ip), vehicle: saline 107 % of control

O=C1CCCCCCCC1O (centres undefined)
inactive: [12] 95 % of control | [13] 94 % of control | [14] 105 % of control

CN(C)NC(=O)CC(NCc1ccccc1)C(=O)O (centres undefined)
inactive: [1] 102 % of control | [2] 101 % of control | [3] 98 % of control

CO[C@@H]1[C@H](O)CC[C@]2(CO2)[C@H]1[C@@]1(C)O[C@@H]1CC=C(C)C
inactive: endpoint: median survival time, dose: 1.56 mg/kg/injection, schedule: Q01DX009 (ip), vehicle: saline with Tween-80 101 % of control and 103 % of control | endpoint: median survival time, dose: 3.12 mg/kg/injection, schedule: Q01DX009 (ip), vehicle: saline with Tween-80 93 % of control and 102 % of control | endpoint: median survival time, dose: 6.25 mg/kg/injection, schedule: Q01DX009 (ip), vehicle: saline with Tween-80 97 % of control and 105 % of control | endpoint: median survival time, dose: 12.5 mg/kg/injection, schedule: Q01DX009 (ip), vehicle: saline with Tween-80 101 % of control and 102 % of control | endpoint: median survival time, dose: 25.0 mg/kg/injection, schedule: Q01DX009 (ip), vehicle: saline with Tween-80 101 % of control and 102 % of control | endpoint: median survival time, dose: 50.0 mg/kg/injection, schedule: Q01DX009 (ip), vehicle: saline with Tween-80 97 % of control and 103 % of control

CC/C=N/NC(=O)c1ccc[n+](C)c1
inactive: [17] 100 % of control | [18] 92 % of control | [19] 96 % of control

COC(=O)c1ccc(C)c(NC2=NCCO2)c1
inactive: [6] 96 % of control | [7] 97 % of control | [8] 102 % of control | [9] 105 % of control | endpoint: mean survival time, dose: 100.0 mg/kg/injection, schedule: Q01DX001 (ip), vehicle: saline with Tween-80 97 % of control | endpoint: mean survival time, dose: 200.0 mg/kg/injection, schedule: Q01DX001 (ip), vehicle: saline with Tween-80 97 % of control | endpoint: mean survival time, dose: 400.0 mg/kg/injection, schedule: Q01DX001 (ip), vehicle: saline with Tween-80 93 % of control

CCN(CC)C(=O)Nc1ccccc1Cl
inactive: [17] 105 % of control | [18] 108 % of control | [19] 94 % of control
